The structures appear in SMILES notation.

The nature of the data set: Resistivity of blends according to standard ASTM D1169. The class given is physicochemical. The procedure:
The resistivity ability of blends was evaluated according to the standard ASTM […].

Consider `CCCCCCCC/C=C\CCCCCCCC(=O)OCC(COC(=O)CCCCCCC/C=C\CCCCCCCC)(COC(=O)CCCCCCC/C=C\CCCCCCCC)COC(=O)CCCCCCC/C=C\CCCCCCCC` [Pentaerythritol tetraoleate], for which the Resistivity is listed as 12.00 10^10 Ωcm.

The values above are taken from EP4588995A1, “IMPROVEMENT OF SOLUBILITY OF CHOLINE CARBOXYLATES IN BASE OILS” (OLEON NV, priority 2024, dated 2025).
